Source: ChEMBL document CHEMBL1201862, “PubChem BioAssay data set” (2004)
Active and inactive are the calls of the source.

Tests used:
[1] = target: Neuropeptide Y receptor type 2 (Homo sapiens, UniProt P49146); assay: Fluorescence-based counterscreen for agonists of NPY-Y1: cell-based high-throughput dose response assay for agonists of NPY-Y2.; format: functional
HEK293 [2] = assay: Fluorescence-based counterscreen for potentiators or agonists of NPY-Y1: cell-based high-throughput dose response assay for inhibitors of cyclic nucleotide gated ion channel (CNGC) activity. In this assay, the parental HEK293 cell line transfected with a cyclic-nucleotide gated ion channel (CNGC)-based cAMP sensor is used to measure inhibition of isoproterenol-induced CNGC …; format: functional; details: Homo sapiens
[3] = target: Neuropeptide Y receptor type 1 (Homo sapiens, UniProt P25929); assay: Fluorescence-based dose response cell-based high-throughput screening assay for agonists of NPY-Y1. [Related pubchem assays: 1697 (Screening assay (NPY-Y1 agonists).), 1359 (Screening assay (NPY-Y2 potentiators or agonists).), 1304 (Screening assay (NPY-Y1 potentiators or agonists).), 1704 (Screening assay (CNGC inhibitors).), 1791 (Summary AID.)]; format: functional
Sequence of Neuropeptide Y receptor type 1 (P25929 whole entry): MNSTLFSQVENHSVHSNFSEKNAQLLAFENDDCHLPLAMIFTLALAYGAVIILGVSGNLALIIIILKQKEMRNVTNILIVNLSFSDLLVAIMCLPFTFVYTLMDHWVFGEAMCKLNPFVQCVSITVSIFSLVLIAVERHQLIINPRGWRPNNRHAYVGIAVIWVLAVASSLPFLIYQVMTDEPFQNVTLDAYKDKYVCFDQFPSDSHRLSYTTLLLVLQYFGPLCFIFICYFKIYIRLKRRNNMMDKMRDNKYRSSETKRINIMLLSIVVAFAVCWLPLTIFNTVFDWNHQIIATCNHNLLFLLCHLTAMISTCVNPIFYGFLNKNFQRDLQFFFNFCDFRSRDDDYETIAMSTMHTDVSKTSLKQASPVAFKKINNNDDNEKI

[4] = target: Transitional endoplasmic reticulum ATPase (Homo sapiens, UniProt P55072, C522A); assay: C522A mutant p97 ATPase inhibitors, dose response, counter-screen for p97 inhibitor project, biochemical, luminescence (AID 1544)
Sequence of Transitional endoplasmic reticulum ATPase (Homo sapiens, UniProt P55072, C522A) (P55072 2-806 C522A limits assumed): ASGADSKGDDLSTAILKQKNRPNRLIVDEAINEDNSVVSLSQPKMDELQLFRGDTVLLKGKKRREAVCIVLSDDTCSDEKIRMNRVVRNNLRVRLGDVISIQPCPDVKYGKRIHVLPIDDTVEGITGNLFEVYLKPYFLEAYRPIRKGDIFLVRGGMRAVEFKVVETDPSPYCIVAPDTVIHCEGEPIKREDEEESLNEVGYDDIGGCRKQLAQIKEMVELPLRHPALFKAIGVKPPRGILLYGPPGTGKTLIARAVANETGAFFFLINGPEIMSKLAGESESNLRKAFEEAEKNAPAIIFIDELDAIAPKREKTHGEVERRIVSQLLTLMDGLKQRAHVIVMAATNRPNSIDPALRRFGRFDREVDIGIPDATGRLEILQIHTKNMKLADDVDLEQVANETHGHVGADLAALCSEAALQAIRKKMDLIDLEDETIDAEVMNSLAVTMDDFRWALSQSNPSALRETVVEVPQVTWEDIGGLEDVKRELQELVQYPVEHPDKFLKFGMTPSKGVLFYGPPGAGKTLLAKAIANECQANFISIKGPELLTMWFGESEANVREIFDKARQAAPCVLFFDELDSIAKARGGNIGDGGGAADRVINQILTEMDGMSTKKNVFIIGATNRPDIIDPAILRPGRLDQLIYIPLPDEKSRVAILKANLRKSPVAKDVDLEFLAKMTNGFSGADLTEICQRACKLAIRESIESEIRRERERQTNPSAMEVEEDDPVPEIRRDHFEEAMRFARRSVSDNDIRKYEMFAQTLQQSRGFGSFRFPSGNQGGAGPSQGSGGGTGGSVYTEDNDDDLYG

[5] = inhibitors of intracellular T. cruzi replication, confirmation, NIH3T3 host cells, beta-gal luminescence (AID 2044); format: functional, cell-based;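 further: intracellular parasites grown in NIH/3T3 mouse fibroblasts as host cells; luminescent beta-galactosidase reporter signal from transgenic T. cruzi replicating inside host cells; inhibitors lower the luminescence signal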
[6] = cytotoxicity toward NIH3T3 fibroblasts, dose response, counter-screen, cell-based, ATP luminescence, mouse fibroblasts (AID 2010); format: functional;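 further: cells exposed to compound for about 90 hours before reading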
[7] = target: Transitional endoplasmic reticulum ATPase (Homo sapiens, UniProt P55072); assay: p97 ATPase inhibitors, dose response, biochemical (AID 1534)
Sequence of Transitional endoplasmic reticulum ATPase (Homo sapiens, UniProt P55072) (P55072 whole entry): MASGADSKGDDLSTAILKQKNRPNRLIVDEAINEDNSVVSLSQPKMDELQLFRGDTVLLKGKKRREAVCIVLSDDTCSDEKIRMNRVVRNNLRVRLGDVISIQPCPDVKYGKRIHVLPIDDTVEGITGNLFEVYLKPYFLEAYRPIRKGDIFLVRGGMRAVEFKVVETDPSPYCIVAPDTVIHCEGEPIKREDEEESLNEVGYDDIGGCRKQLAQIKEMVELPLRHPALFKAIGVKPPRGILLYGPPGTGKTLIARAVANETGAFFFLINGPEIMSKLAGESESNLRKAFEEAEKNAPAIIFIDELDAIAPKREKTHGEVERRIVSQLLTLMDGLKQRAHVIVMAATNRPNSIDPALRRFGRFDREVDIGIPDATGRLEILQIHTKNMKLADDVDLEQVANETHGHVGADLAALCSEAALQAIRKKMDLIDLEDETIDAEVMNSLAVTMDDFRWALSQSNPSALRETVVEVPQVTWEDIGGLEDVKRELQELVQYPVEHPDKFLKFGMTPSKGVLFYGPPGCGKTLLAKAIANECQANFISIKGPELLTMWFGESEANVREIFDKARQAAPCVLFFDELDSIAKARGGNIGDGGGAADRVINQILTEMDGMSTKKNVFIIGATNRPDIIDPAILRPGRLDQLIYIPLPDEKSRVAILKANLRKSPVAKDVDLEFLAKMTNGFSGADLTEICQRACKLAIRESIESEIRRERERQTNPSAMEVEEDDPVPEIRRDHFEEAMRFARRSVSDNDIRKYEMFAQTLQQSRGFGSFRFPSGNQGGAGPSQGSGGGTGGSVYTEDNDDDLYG

cells = format: functional
[8] = target: Heat shock protein HSP 90-alpha (Homo sapiens, UniProt P07900); format: functional, organism-based
[9] = target: Mitochondrial peptide methionine sulfoxide reductase (Bos taurus, UniProt P54149); assay: Absorbance-based biochemical high throughput dose response assay for activators of Methionine sulfoxide reductase A (MsrA).; format: functional
Sequence of Mitochondrial peptide methionine sulfoxide reductase (P54149 whole entry): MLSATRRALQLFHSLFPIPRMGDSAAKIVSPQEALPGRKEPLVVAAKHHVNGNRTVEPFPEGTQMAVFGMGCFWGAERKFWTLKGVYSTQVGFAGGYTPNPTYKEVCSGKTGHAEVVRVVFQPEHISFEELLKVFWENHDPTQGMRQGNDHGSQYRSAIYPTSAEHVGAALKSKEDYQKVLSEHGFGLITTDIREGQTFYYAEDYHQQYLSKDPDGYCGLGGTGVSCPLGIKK

[10] = target: Acyl-homoserine lactone acylase PvdQ (Pseudomonas aeruginosa (strain LESB58), UniProt Q9I194); assay: P. aeruginosa PvdQ acylase inhibitors, dose response, biochemical, fluorescence, plate reader and imaging, cherry-picks (AID 493231)
Sequence of Acyl-homoserine lactone acylase PvdQ (Q9I194 24-193 limits assumed): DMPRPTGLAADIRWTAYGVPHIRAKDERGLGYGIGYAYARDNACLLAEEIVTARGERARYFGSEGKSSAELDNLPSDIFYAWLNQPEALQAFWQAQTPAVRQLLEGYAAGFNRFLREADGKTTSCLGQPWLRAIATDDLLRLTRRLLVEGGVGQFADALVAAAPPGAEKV
Sequence of Acyl-homoserine lactone acylase PvdQ (Q9I194 217-762 limits assumed): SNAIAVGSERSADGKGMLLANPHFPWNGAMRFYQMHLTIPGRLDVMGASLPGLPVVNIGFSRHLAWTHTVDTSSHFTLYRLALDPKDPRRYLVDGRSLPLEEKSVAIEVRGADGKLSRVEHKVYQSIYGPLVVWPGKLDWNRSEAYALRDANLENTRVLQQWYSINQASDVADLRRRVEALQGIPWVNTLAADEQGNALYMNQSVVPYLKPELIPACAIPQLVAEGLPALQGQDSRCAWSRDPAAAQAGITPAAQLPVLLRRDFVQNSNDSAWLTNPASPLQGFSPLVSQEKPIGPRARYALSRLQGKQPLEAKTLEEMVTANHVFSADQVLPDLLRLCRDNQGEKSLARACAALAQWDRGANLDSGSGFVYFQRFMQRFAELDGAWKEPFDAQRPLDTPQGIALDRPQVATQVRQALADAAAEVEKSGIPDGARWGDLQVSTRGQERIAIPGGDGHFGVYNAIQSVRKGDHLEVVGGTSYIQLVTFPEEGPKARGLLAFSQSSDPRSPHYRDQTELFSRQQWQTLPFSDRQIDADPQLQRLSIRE

[11] = target: T1, Alkaline phosphatase, tissue-nonspecific isozyme (Homo sapiens, UniProt P05186)
T1 sequence (P05186 whole entry): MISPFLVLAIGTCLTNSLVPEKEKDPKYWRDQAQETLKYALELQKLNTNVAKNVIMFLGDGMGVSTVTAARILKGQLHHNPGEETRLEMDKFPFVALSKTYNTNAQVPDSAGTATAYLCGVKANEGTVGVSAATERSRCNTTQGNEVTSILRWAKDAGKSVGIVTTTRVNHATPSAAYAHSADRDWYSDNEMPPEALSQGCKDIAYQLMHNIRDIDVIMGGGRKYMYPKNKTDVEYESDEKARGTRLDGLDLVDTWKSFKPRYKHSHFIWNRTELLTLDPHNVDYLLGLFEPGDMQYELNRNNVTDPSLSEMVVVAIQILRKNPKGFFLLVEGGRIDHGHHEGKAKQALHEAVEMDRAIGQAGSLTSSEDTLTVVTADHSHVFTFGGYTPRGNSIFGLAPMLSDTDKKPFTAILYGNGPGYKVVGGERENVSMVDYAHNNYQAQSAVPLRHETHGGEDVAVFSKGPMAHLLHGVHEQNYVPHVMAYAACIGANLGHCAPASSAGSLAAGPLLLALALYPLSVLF

HEK293 [12] = assay: PMA/Ionomycin induced NF-kB luciferase assay in 293- NF-kB-Luc stable cells. [Related pubchem assays: 1299, 1270, 1295, 1375, 1287, 1281, 1293, 1291, 1289, 1280, 465, 1364, 1282, 1372, 1365, 1370, 1367, 1366, 1269, 1373, 1292, 1290, 1302, 1371, 1283, 1271, 1294, 1374, 1368, 1369 ]; format: functional, cell-based; details: Homo sapiens
[13] = target: Luciferin 4-monooxygenase (Photinus pyralis, UniProt P08659); assay: In vitro luciferase assay using purified luciferase. [Related pubchem assays: 1299, 1270, 1295, 1375, 1287, 1281, 1293, 1291, 1289, 1280, 465, 1364, 1282, 1372, 1365, 1370, 1367, 1366, 1266, 1373, 1292, 1290, 1302, 1371, 1283, 1271, 1294, 1374, 1368, 1369 ]
Sequence of Luciferin 4-monooxygenase (P08659 whole entry): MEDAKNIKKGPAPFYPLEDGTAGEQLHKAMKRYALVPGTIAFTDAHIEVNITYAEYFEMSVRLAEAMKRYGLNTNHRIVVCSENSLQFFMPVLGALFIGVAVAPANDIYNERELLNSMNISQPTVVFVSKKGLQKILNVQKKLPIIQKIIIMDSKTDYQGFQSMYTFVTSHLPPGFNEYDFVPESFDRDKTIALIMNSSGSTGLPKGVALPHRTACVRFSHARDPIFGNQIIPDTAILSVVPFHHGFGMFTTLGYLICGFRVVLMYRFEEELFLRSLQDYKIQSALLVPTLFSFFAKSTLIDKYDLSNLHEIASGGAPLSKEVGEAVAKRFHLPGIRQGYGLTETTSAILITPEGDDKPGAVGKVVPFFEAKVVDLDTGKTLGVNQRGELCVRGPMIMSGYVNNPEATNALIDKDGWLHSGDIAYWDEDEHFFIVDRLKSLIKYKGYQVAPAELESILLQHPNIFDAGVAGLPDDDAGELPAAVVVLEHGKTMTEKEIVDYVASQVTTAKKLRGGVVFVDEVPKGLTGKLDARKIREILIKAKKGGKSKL

HEK293 [14] = assay: Cytotoxicity assay in HEK293 cells. [Related pubchem assays (depositor defined):AID1266, AID1269, AID1270, AID1271, AID1280, AID1281, AID1282, AID1283, AID1287, AID1289, AID1290, AID1291, AID1292, AID1293, AID1294, AID1295, AID1299, AID1302, AID1364, AID1365, AID1366, AID1367, AID1369, AID1370, AID1371, AID1372, AID1373, AID1374, AID1375, AID1384 …; format: functional, cell-based; details: Homo sapiens
HEK293 [15] = assay: TNF Induced NF-kB Luciferase in 293-NF-kB-Luc Stable Cells. [Related pubchem assays: 1266, 1299, 1269, 1373, 1292, 1290, 1302, 1371, 1283, 1270, 1295, 1271, 1375, 1294, 1374, 1281, 1293, 1291, 1289, 1280, 465, 1368, 1364, 1282, 1372, 1365, 1369, 1370, 1367, 1366 ]; format: functional, cell-based; details: Homo sapiens
[16] = target: Photoreceptor-specific nuclear receptor (Homo sapiens, UniProt Q9Y5X4); format: functional, cell-based;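 further: CHO-S cells with Gal4-NCOR and VP16-NR2E3 two-hybrid luciferase reporter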
Sequence of Photoreceptor-specific nuclear receptor (Q9Y5X4 whole entry, the tested form may be a part): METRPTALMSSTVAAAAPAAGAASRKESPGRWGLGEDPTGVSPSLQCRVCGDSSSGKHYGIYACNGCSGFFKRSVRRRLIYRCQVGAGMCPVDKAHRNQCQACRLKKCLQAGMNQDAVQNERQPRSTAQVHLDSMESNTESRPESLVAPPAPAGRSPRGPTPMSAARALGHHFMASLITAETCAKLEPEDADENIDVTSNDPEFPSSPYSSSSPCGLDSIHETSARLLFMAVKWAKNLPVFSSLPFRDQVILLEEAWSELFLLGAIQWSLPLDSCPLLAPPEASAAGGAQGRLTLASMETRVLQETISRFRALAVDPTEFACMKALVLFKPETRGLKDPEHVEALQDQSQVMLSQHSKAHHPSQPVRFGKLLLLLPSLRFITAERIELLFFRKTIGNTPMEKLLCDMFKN

[17] = A549 cell cytotoxicity, dose response, cytotoxicity control, plate reader, cherry-pick, antagonist series (AID 743412); format: functional, cell-based
[18] = HepG2 cell cytotoxicity, dose response, cytotoxicity control, plate reader, cherry-pick, antagonist series (AID 743416); format: functional, cell-based
[19] = LGR2 antagonists, dose response, cell-based, HEK293, CRE-luciferase reporter, cherry pick, set 2 (AID 743343); format: functional;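 further: transfected cells were stimulated with diluted bursicon conditioned medium after compound addition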
[20] = MC4R antagonists, dose response, counter-screen for LGR2 antagonist project, cell-based, plate reader, cherry pick (AID 743444); format: functional;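 further: transfected HEK 293 cells stimulated with alpha-MSH peptide; potency of inhibitors of the alpha-MSH evoked signal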
[21] = HEK293 cell cytotoxicity, dose response, cytotoxicity control, plate reader, cherry-picked samples (AID 743446); format: functional, cell-based

Sequence of Neuropeptide Y receptor type 2 (P49146 whole entry): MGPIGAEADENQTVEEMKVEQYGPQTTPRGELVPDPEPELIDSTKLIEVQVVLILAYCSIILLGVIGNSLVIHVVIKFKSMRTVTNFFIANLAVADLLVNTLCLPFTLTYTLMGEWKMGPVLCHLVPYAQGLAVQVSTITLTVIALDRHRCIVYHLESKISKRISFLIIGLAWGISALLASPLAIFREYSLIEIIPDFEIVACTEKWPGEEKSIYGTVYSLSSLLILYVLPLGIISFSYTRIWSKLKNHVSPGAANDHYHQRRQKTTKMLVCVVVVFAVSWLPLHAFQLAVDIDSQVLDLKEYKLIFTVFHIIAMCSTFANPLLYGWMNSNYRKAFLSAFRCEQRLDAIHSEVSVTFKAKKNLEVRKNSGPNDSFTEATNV

## CC(C)(C)NC(=O)C(c1ccc(O)cc1)N(C(=O)Cn1nnc(-c2ccc(F)cc2)n1)c1ccccc1F (configuration not stated)
[1]
  EC50: > 35.4 µM (not active)
HEK293 [2]
  IC50: 16.8 µM (not active)
[3]
  EC50: > 35.4 µM (not active)

## O=C(OCC(=O)c1c[nH]c2ccccc12)c1ccc([N+](=O)[O-])s1
[4]
  IC50: > 50 µM (not active)
[5]
  EC50: 1.04 µM (active)
[6]
  EC50: > 60 µM (not active)
[7]
  IC50: > 50 µM (not active)
cells
  IC50: 1.62 µM (active)
[8]
  AC50: 3.8 µM (active)
[9]
  EC50: 36.4 µM (inactive)

## Clc1cccc(CNCCCSc2ncccn2)c1
[10]
  AC50: 6.84 µM (active)

## Cc1c(Cl)c(C(=O)NNC(=S)Nc2ccccc2)nn1C
[11]
  EC50: 50.5 µM (not active)

## Clc1ccc(-n2ncc3c(N4CCCCCC4)ncnc32)cc1
HEK293 [12]
  EC50: 2.77 µM (active)
[13]
  EC50: > 8 µM (not active)
HEK293 [14]
  EC50: > 13.2 µM (inactive)
HEK293 [15]
  EC50: 3.73 µM (active)
[16]
  IC50: 4.43 µM (active)
[17]
  AC50: > 52 µM (inactive)
[18]
  AC50: > 52 µM (inactive)
[19]
  AC50: < 0.068 µM (active)
[20]
  AC50: < 0.068 µM (active)
[21]
  AC50: > 52 µM (inactive)
